This note sets out measurements from ChEMBL document CHEMBL4418262, “Heterocyclic compounds for the inhibition of pask” (2016).

Broadly, the IC50 is the concentration needed to halve the response being measured.

The target in the experiment is PAS domain-containing serine/threonine-protein kinase (Homo sapiens, UniProt Q96RG2). Briefly: Inhibition of GST-tagged human recombinant PASK expressed in Baculovirus based system using Ulight-peptide substrate incubated for 2 hrs by TR-FRET assay. (Time-resolved FRET reads energy transfer from a long-lived donor to a nearby acceptor.)
Chain of PAS domain-containing serine/threonine-protein kinase (Q96RG2 whole entry, the tested form may be a part): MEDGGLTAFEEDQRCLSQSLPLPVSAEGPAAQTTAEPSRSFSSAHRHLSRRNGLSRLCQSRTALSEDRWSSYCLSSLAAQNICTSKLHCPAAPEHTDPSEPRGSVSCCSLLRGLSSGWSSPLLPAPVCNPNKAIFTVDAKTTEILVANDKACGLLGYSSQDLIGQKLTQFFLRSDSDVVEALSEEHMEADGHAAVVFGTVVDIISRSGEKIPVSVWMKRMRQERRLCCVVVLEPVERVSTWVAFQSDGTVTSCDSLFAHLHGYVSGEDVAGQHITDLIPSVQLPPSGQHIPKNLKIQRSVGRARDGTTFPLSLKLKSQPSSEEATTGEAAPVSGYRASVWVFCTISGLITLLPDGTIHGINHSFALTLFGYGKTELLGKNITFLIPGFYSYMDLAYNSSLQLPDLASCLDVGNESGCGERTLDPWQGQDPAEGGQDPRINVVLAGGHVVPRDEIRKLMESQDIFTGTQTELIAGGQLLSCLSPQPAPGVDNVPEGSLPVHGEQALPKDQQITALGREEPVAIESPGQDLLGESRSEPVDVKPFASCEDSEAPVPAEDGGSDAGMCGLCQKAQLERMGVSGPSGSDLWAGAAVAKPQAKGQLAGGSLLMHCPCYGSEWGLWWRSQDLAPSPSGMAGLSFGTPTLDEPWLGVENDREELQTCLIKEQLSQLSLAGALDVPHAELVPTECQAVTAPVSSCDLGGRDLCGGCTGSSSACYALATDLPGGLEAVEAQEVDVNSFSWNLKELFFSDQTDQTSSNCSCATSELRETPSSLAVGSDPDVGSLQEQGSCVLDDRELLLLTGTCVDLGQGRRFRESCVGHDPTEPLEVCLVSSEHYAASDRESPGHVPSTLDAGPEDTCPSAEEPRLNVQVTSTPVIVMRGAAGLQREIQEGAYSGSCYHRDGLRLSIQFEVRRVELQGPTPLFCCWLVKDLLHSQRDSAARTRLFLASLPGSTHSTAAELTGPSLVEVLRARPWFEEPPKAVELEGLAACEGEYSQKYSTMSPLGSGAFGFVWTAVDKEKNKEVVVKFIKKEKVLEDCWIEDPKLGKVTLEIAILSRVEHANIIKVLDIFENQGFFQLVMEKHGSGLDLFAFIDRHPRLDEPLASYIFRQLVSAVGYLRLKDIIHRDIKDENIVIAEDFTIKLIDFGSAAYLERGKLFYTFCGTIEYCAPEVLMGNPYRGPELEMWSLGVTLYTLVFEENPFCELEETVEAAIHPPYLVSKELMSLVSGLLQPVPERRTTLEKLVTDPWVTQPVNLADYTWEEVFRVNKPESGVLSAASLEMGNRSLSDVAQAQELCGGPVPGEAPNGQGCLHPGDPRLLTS
Turning to `C[C@H]1CCCN1c1nc2cc(C(=O)O)ccc2nc1-c1coc2ccc(C(F)(F)F)cc12`, the concentration for half-maximal inhibition (IC50) was ≤ 10 µM. For the compound `CC(C)N(C)c1nc2cc(C(=O)O)ccc2nc1-c1coc2ccc(C(F)(F)F)cc12`, the IC50 was ≤ 10 µM. For `C[C@H]1CCCCN1c1nc2cc(C(=O)O)ccc2nc1-c1cc2cc(F)ccc2o1`, the IC50 was ≤ 10 µM. On to `CN(c1nc2cc(C(=O)O)ccc2nc1-c1ccc(F)cc1)C1CCC(O)CC1` (centres undefined), for which the IC50 was ≤ 10 µM.
